Test results reported in article PMC9154192 (PLoS Biology, 2022).
In brackets after ≈: the same amount, converted by molar mass. Several values for one entry are separate records, joined by “and”; a condition that tells them apart may be missing. Equal values may be shown once. Read-outs that look alike come from different tables or passages of the source.

How the values were obtained:
[1] = test system: M. tuberculosis H37Rv; test: microbe, parasite or virus in culture; format: cell-based, Mycobacterium tuberculosis
[2] = test system: M. tuberculosis H37Ra; test: microbe, parasite or virus in culture; format: cell-based, Mycobacterium tuberculosis; conditions: Mycobacterium tuberculosis, H37RA
[3] = test system: XDR M. tuberculosis (KMRC 00203–00197); format: cell-based, Mycobacterium tuberculosis; conditions: for log reduction (CFU): 7 days
[4] = test system: M. tuberculosis H37Rv; format: cell-based, Mycobacterium tuberculosis; conditions: for RFU/200 μl (replicates1-3), single values / RFU/ml (×104) / RFU/200 μl (average): Fig 2A
[5] = test system: XDR M. tuberculosis; format: cell-based, Mycobacterium tuberculosis
[6] = test system: XDR M. tuberculosis; test: Luminescence-based microbial cell viability assay; set-up: species or system Mycobacterium tuberculosis
[7] = test system: M. tuberculosis H37Rv; format: in vivo, BALB/c mice; set-up: Efficacy in BALB/C mouse model of pulmonary tuberculosis, Average / Efficacy in BALB/C mouse model of pulmonary tuberculosis, values of mice 1-6: unit not given here; conditions: Fig 4C
[8] = in vitro; format: cell-based; conditions: human
Description: A549 human pulmonary epithelial cells (KCLB 10185), human embryonic kidney (HEK) 293 cells (KCLB 21573), human THP-1 leukemia cells (KCLB 40202), human neuroblastoma SH-SY5Y cells (KCLB 22266), Murine Raw 264.7 macrophages (KCLB 40071), and L929 murine fibroblasts (KCLB 10001) were purchased from the KCLB (Seoul, Korea). Cytotoxicity testing was performed using the MTT assay and the WST-1 cell viability assay as previously described.

[9] = in vitro; format: cell-based, murine; conditions: mouse
How it was run: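 Cytotoxicity was assessed by MTT assay together with a WST-1 cell viability assay, both run according to previously described procedures.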

[10] = test system: M. avium; test: microbe, parasite or virus in culture; format: cell-based; conditions: Mycobacterium avium
[11] = test system: M. colombiense; test: microbe, parasite or virus in culture; format: cell-based; conditions: Mycobacterium colombiense
[12] = test system: Acinetobacter baumannii; test: Broth dilution MIC (CLSI); format: cell-based; conditions: read-out: MIC
[13] = test system: Aspergillus fumigatus; test: Broth dilution MIC (CLSI); format: cell-based; conditions: read-out: MIC
[14] = test system: Bacillus subtilis; test: Broth dilution MIC (CLSI); format: cell-based; conditions: read-out: MIC
[15] = test system: Candida albicans; test: Broth dilution MIC (CLSI); format: cell-based; conditions: read-out: MIC
[16] = test system: Escherichia coli O157; test: Broth dilution MIC (CLSI); format: cell-based; conditions: read-out: MIC
[17] = test system: Escherichia coli; test: Broth dilution MIC (CLSI); format: cell-based; conditions: read-out: MIC
[18] = test system: Klebsiella pneumoniae; test: Broth dilution MIC (CLSI); format: cell-based; conditions: read-out: MIC
[19] = test system: Proteus mirabilis; test: Broth dilution MIC (CLSI); format: cell-based; conditions: read-out: MIC
[20] = test system: Saccharomyces cerevisiae; test: Broth dilution MIC (CLSI); format: cell-based; conditions: read-out: MIC
[21] = test system: Serratia marcescens; test: Broth dilution MIC (CLSI); format: cell-based; conditions: read-out: MIC
[22] = test system: Shigella dysenteriae; test: Broth dilution MIC (CLSI); format: cell-based; conditions: read-out: MIC
[23] = test system: Shigella flexneri; test: Broth dilution MIC (CLSI); format: cell-based; conditions: read-out: MIC
[24] = test system: Staphylococcus epidermidis; test: Broth dilution MIC (CLSI); format: cell-based; conditions: read-out: MIC
[25] = test system: Streptococcus pneumoniae; test: Broth dilution MIC (CLSI); format: cell-based; conditions: read-out: MIC
[26] = test system: Trichophyton rubrum; test: Broth dilution MIC (CLSI); format: cell-based; conditions: read-out: MIC

COC(=O)[C@@H]1CCC(=O)N1Cc1cc2ccc(OC)cc2c2cc(OC)c(OC)cc12 [PP1S, (S)-N-[(2,3,6-Trimethoxy-10-phenanthryl)methyl]-pyroglutamic acid methyl ester]
in vitro antitubercular activities (S-form vs R-form) [1]: had in vitro antitubercular activities
MIC ([1]; Mycobacterium tuberculosis, H37RV, read-out: MIC): 1.6 µg/mL (≈ 3.78 µM)
SI (CC50/MIC) ([1]; ratio of CC50 for L929 fibroblasts to MIC for strain H37Rv): >62.5
MIC [2]: 1.6 µg/mL (≈ 3.78 µM)
CFU (replicates1-3), single values [3]: 9800 CFU and 11000 CFU and 9100 CFU and 4200 CFU and 13900 CFU and 20700 CFU and 20100 CFU and 12600 CFU and 16500 CFU and 28000 CFU and 112000 CFU and 92700 CFU and 90100 CFU and 36800 CFU and 38700 CFU and 24400 CFU and 24700 CFU and 22500 CFU
log reduction (CFU) ([3]; at 0.8 μg/ml): 0.8
log reduction (CFU) ([3]; at 1.6 μg/ml): 1.3
RFU/200 μl (replicates1-3), single values ([4]; drug conc. 0.39): 59110 RFU/200 μl and 59240 RFU/200 μl and 59440 RFU/200 μl and 58960 RFU/200 μl and 59940 RFU/200 μl and 59150 RFU/200 μl and 59270 RFU/200 μl and 59190 RFU/200 μl and 59120 RFU/200 μl
RFU/ml (×104) ([4]; drug conc. 0.39): 29.6 RFU/ml (×104)
RFU/200 μl (average) ([4]; drug conc. 0.39, average of each replicate set): 59447 RFU/200 μl and 59203 RFU/200 μl and 59157 RFU/200 μl
RFU/200 μl (replicates1-3), single values ([4]; drug conc. 0.78): 53920 RFU/200 μl and 54090 RFU/200 μl and 54550 RFU/200 μl and 54830 RFU/200 μl and 54570 RFU/200 μl and 54130 RFU/200 μl and 54320 RFU/200 μl and 54040 RFU/200 μl and 53950 RFU/200 μl
RFU/ml (×104) ([4]; drug conc. 0.78): 27.1 RFU/ml (×104)
RFU/200 μl (average) ([4]; drug conc. 0.78, average of each replicate set): 54650 RFU/200 μl and 54163 RFU/200 μl and 53987 RFU/200 μl
RFU/200 μl (replicates1-3), single values ([4]; drug conc. 1.56): 29900 RFU/200 μl and 30040 RFU/200 μl and 30750 RFU/200 μl and 30860 RFU/200 μl and 30640 RFU/200 μl and 28310 RFU/200 μl and 28580 RFU/200 μl and 28120 RFU/200 μl and 29920 RFU/200 μl
RFU/ml (×104) ([4]; drug conc. 1.56): 14.8 RFU/ml (×104)
RFU/200 μl (average) ([4]; drug conc. 1.56, average of each replicate set): 30750 RFU/200 μl and 28337 RFU/200 μl and 29953 RFU/200 μl
concentration with significant antitubercular effect ([4]; fluorescence-based assay): 1.56 µg/mL
RFU/200 μl (replicates1-3), single values [5]: 28550 RFU/200 μl (2×) and 31600 RFU/200 μl and 31980 RFU/200 μl and 30880 RFU/200 μl and 29180 RFU/200 μl and 29520 RFU/200 μl and 28730 RFU/200 μl and 28570 RFU/200 μl and 47010 RFU/200 μl and 47100 RFU/200 μl and 48600 RFU/200 μl and 48210 RFU/200 μl and 50840 RFU/200 μl and 43460 RFU/200 μl and 43510 RFU/200 μl and 43540 RFU/200 μl and 47050 RFU/200 μl and 50580 RFU/200 μl and 50770 RFU/200 μl and 53600 RFU/200 μl and 53640 RFU/200 μl and 54810 RFU/200 μl and 45790 RFU/200 μl and 45690 RFU/200 μl and 45900 RFU/200 μl and 50680 RFU/200 μl
RFU/ml (×104) [5]: 14.9 RFU/ml (×104) and 23.3 RFU/ml (×104) and 25.1 RFU/ml (×104)
concentration with significant antitubercular effect [5]: 1.56 µg/mL and 0.78 µg/mL
RLU/50ul (replicates1-3), single values [6]: 370 RLU/50ul (2×) and 430 RLU/50ul and 270 RLU/50ul and 260 RLU/50ul and 320 RLU/50ul and 360 RLU/50ul and 340 RLU/50ul and 390 RLU/50ul and 420 RLU/50ul and 450 RLU/50ul and 590 RLU/50ul and 610 RLU/50ul and 670 RLU/50ul and 570 RLU/50ul and 550 RLU/50ul (2×) and 460 RLU/50ul and 440 RLU/50ul and 630 RLU/50ul and 790 RLU/50ul and 540 RLU/50ul and 580 RLU/50ul and 840 RLU/50ul and 860 RLU/50ul and 750 RLU/50ul and 640 RLU/50ul
RLU/ml (×100) [6]: 69.1 RLU/ml (×100) and 105.8 RLU/ml (×100) and 137.3 RLU/ml (×100)
concentration with significant antitubercular effect [6]: 1.56 µg/mL and 0.78 µg/mL
Efficacy in BALB/C mouse model of pulmonary tuberculosis, Average ([7]; group dose 30, 6 mice): 2683333
Efficacy in BALB/C mouse model of pulmonary tuberculosis, Average ([7]; group dose 100, 6 mice): 1028333
CC50 ([8]; A549): > 500 µg/mL
CC50 ([8]; HEK-293): > 500 µg/mL
CC50 ([8]; SH-SY5Y): > 500 µg/mL
CC50 ([8]; THP-1): > 500 µg/mL
CC50 ([9]; L929): > 500 µg/mL
CC50 ([9]; L929, MTT assay (Table S1)): > 100 µg/mL
CC50 ([9]; RAW, MTT assay (Table S1)): > 100 µg/mL
CC50 ([9]; Raw264.7): > 500 µg/mL
MIC [10]: > 100 µg/mL
MIC [11]: > 100 µg/mL
MIC [12]: > 100 µg/mL
MIC [13]: > 100 µg/mL
MIC [14]: > 100 µg/mL
MIC [15]: > 100 µg/mL
MIC [16]: > 100 µg/mL
MIC [17]: > 100 µg/mL
MIC [18]: > 100 µg/mL
MIC [19]: > 100 µg/mL
MIC [20]: > 100 µg/mL
MIC [21]: > 100 µg/mL
MIC [22]: > 100 µg/mL
MIC [23]: > 100 µg/mL
MIC [24]: > 100 µg/mL
MIC [25]: > 100 µg/mL
MIC [26]: > 100 µg/mL
